The record followed here is patent US5565425A, “Viral infection and proliferation inhibitors” (Snow Brand Milk Products Co., Ltd, priority 1993, dated 1996).

The subject of one experiment is HIV (HTLV-IIIB). The experiment can be described thus: Inhibitory activity against HIV infection and proliferation in MT-4 cells (indirect fluorescence antibody method). It is filed as cell-based, human immunodeficiency virus (HIV). The note with it: three days, positive control 26.0%. On the procedure: (Method) Cultured supernatant of MOLT-4/HTLV-IIIB cells, a HTLV-IIIB persistent infected strain of HIV, was used as a viral solution. The supernatant was kept at -80° C. Human T cell line MT-4 was used for the test. MT-4 was subcultured in RPMI 1640 medium containing 10% fetal calf serum (FCS). Sample, LF derived peptide, was dissolved in RPMI 1640 medium and one ml of the diluted solution at various concentrations was added to the cells. The inoculated MT-4 test sample was incubated for 60 minutes and infected with HIV at a concentration of moi […]=0.01 and one ml of the cell solution adjusted at a cell density of 3×10^5 cells/ml was added. The cells were cultured for three days : and HIV infected cells were determined with an indirect fluorescence antibody method.
HIV infected cells were determined by the indirect fluorescence antibody method using HIV infected patient serum as a primary antibody. […] HIV infected MT-4 cells cultured without addition of the sample was used as a positive control and cells without addition of viral solution was cultured to make a negative control group.

In experiment [1] the test system is influenza virus A/PR/8/34. The settings on record: 100 μl of one mg/ml solution in allantoic cavity three hours before virus; average of five eggs.
Experiment [2] relates to Human CMV (Tanaka strain). The experiment can be described thus: Inhibitory activity against human CMV infection and proliferation in HELF cells (fluorescence staining). The format is cell-based, Human cytomegalo virus. The note with it: 24 hrs., concentration not given. On the procedure:
(Method) LF derived peptide was dissolved in 2% serum added MEM medium to give five mg/ml solution, filtered and sterilized to make a stock solution. The stock solution was diluted with 2% serum added MEM medium on use. Samples containing human embryo lung fibroblast cells (HELF cells) were suspended in 2% serum added MEM medium and incubated for 10 minutes. The cells were collected by centrifugation, washed twice with 2% serum added MEM medium and suspended in 2% serum added MEM medium. Human cytomegalo virus [Human CMV (Tanaka strain)] was added, incubated for 24 hrs., fluorescence stained with human CMV positive serum and the adsorption rate of human CMV to the cells was determined.
The results are judged from the numbers of fluorescent stained cells per one cover slip.

The test system of experiment [3] is mouse cytomegalo virus (mouse CMV). Description: In vivo inhibitory activity against mouse CMV infection (survival of mice). The note with it: after 10 days. The procedure:
(Method) Male Balbc/AJcl mice, 4-week-old (10 in one group) were used. The sample was dissolved in phosphate buffer saline solution (PBS) and intraperitoneally administered to mice.

Bridge positions count the residues as written; N and C are the ends. Peptide text beside a SMILES is read from it.

`CC[C@H](C)[C@@H]1NC(=O)[C@H](CO)NC(=O)[C@@H]2CCCN2C(=O)[C@H](C)NC(=O)CNC(=O)[C@H](CC(C)C)NC(=O)[C@H](CCCCN)NC(=O)[C@H](CCCCN)NC(=O)[C@H](CCSC)NC(=O)[C@H](CCCNC(=N)N)NC(=O)[C@H](Cc2c[nH]c3ccccc23)NC(=O)[C@H](CCC(N)=O)NC(=O)[C@H](Cc2c[nH]c3ccccc23)NC(=O)[C@H](CCCNC(=N)N)NC(=O)[C@H](CCCNC(=N)N)NC(=O)[C@@H](NC(C)=O)CSSC[C@@H](C(N)=O)NC(=O)[C@H]([C@@H](C)O)NC1=O` [Ac-bovine LF (19-36)-NH2, N-acetyl-bovine LF (19-36)-amide] (Ac-CRRWQWRMKKLGAPSITC-NH2; disulfide 1-18): the “ratio of stained (HIV infected) cells” value was 17% in the experiment with HIV (HTLV-IIIB) (sample 63 μg/ml); 8.8% in the experiment with HIV (HTLV-IIIB) (sample 125 μg/ml); 6.1% in the experiment with HIV (HTLV-IIIB) (sample 250 μg/ml); 5.0% in the experiment with HIV (HTLV-IIIB) (sample 500 μg/ml); 3.6% with HIV (HTLV-IIIB) (sample 1,000 μg/ml). For the same molecule, the “Inhibitory rate of infection and proliferation of influenza virus” value (“Inhibitory rate … of influenza virus” for short) in experiment [1] is 87.5%. For the same molecule, in experiment [2], the “Inhibitory rate of human CMV infection” value is 96.5%.
On to `CSCC[C@@H]1NC(=O)[C@H](CC(N)=O)NC(=O)[C@H](CCCNC(=N)N)NC(=O)[C@H](CCC(N)=O)NC(=O)[C@H](Cc2c[nH]c3ccccc23)NC(=O)[C@H](CCC(N)=O)NC(=O)[C@H](Cc2ccccc2)NC(=O)[C@@H](NC(C)=O)CSSC[C@@H](C(N)=O)NC(=O)[C@H](CO)NC(=O)[C@H](C(C)C)NC(=O)[C@@H]2CCCN2C(=O)[C@@H]2CCCN2C(=O)CNC(=O)[C@H](CCCNC(=N)N)NC(=O)[C@H](C(C)C)NC(=O)[C@H](CCCCN)NC(=O)[C@H](CCCNC(=N)N)NC1=O` [Ac-human LF (20-37)-NH2, N-acetyl-human LF (20-37)-amide] (Ac-CFQWQRNMRKVRGPPVSC-NH2; disulfide 1-18), for which the “ratio of stained (HIV infected) cells” value with HIV (HTLV-IIIB) (sample 63 μg/ml) is reported as 18%; in the experiment with HIV (HTLV-IIIB) (sample 125 μg/ml), 9.8%; with HIV (HTLV-IIIB) (sample 250 μg/ml), 7.7%; in the experiment with HIV (HTLV-IIIB) (sample 500 μg/ml) it was 4.5%; in the experiment with HIV (HTLV-IIIB) (sample 1,000 μg/ml) it was 3.9%. Also, the “Inhibitory rate … of influenza virus” value in experiment [1] amounted to 93.7%. For the same molecule, the “Inhibitory rate of human CMV infection” value in experiment [2] is 96.1%.
For the molecule `CC[C@H](C)[C@@H]1NC(=O)[C@H](CO)NC(=O)[C@@H]2CCCN2C(=O)[C@H](C)NC(=O)CNC(=O)[C@H](CC(C)C)NC(=O)[C@H](CCCCN)NC(=O)[C@H](CCCCN)NC(=O)[C@H](CCSC)NC(=O)[C@H](CCCNC(=N)N)NC(=O)[C@H](Cc2c[nH]c3ccccc23)NC(=O)[C@H](CCC(N)=O)NC(=O)[C@H](Cc2c[nH]c3ccccc23)NC(=O)[C@H](CCCNC(=N)N)NC(=O)[C@H](CCCNC(=N)N)NC(=O)[C@@H](NC(=O)[C@H](CCCCN)NC(=O)[C@@H](N)Cc2ccccc2)CSSC[C@@H](C(=O)N[C@H](C(=O)N[C@@H](CCCNC(=N)N)C(=O)N[C@@H](CCCNC(=N)N)C(=O)N[C@@H](C)C(=O)N[C@@H](Cc2ccccc2)C(=O)O)C(C)C)NC(=O)[C@H]([C@@H](C)O)NC1=O` [Bovine LF (17-41)], the “ratio of stained (HIV infected) cells” value came to 17% in the experiment with HIV (HTLV-IIIB) (sample 63 μg/ml); 7.9% in the experiment on HIV (HTLV-IIIB) (sample 125 μg/ml); 5.9% in the experiment on HIV (HTLV-IIIB) (sample 250 μg/ml); 2.7% in the experiment on HIV (HTLV-IIIB) (sample 500 μg/ml); 1.0% in the experiment on HIV (HTLV-IIIB) (sample 1,000 μg/ml). The “Inhibitory rate … of influenza virus” value in experiment [1] is on record as 93.7%. The “Inhibitory rate of human CMV infection” value in experiment [2] was 95.7%. The Survival rate worked out at 30% in experiment [3] (0.02 g/kg of body weight i.p. 24 hrs. before mouse CMV), 60% in experiment [3] (0.05 g/kg of body weight i.p. 24 hrs. before mouse CMV), 100% in experiment [3] (0.10 g/kg of body weight i.p. 24 hrs. before mouse CMV) and 100% in experiment [3] (0.50 g/kg of body weight i.p. 24 hrs. before mouse CMV).
`CC[C@H](C)[C@H](NC(=O)[C@H](CO)NC(=O)[C@@H]1CCCN1C(=O)[C@H](C)NC(=O)CNC(=O)[C@H](CC(C)C)NC(=O)[C@H](CCCCN)NC(=O)[C@H](CCCCN)NC(=O)[C@H](CCSC)NC(=O)[C@H](CCCNC(=N)N)NC(=O)[C@H](Cc1c[nH]c2ccccc12)NC(=O)[C@H](CCC(N)=O)NC(=O)[C@H](Cc1c[nH]c2ccccc12)NC(=O)[C@H](CCCNC(=N)N)NC(=O)[C@H](CCCNC(=N)N)NC(=O)[C@H](CS)NC(=O)[C@H](CCCCN)NC(=O)[C@@H](N)Cc1ccccc1)C(=O)N[C@H](C(=O)N[C@@H](CS)C(=O)N[C@H](C(=O)N[C@@H](CCCNC(=N)N)C(=O)N[C@@H](CCCNC(=N)N)C(=O)N[C@@H](C)C(=O)N[C@@H](Cc1ccccc1)C(=O)O)C(C)C)[C@@H](C)O` [[19 CysSH, 36 CysSH] Bovine LF (17-41)]: the “ratio of stained (HIV infected) cells” value in the experiment on HIV (HTLV-IIIB) (sample 63 μg/ml) was 19%; in the experiment on HIV (HTLV-IIIB) (sample 125 μg/ml), 8.3%; with HIV (HTLV-IIIB) (sample 250 μg/ml) it was 6.4%; in the experiment with HIV (HTLV-IIIB) (sample 500 μg/ml) it was 2.9%; with HIV (HTLV-IIIB) (sample 1,000 μg/ml), 1.2%. Further, the “Inhibitory rate … of influenza virus” value in experiment [1] is listed as 92.0%. In addition, the “Inhibitory rate of human CMV infection” value in experiment [2] came out at 100.0%.
Turning to `CC[C@H](C)[C@H](NC(=O)[C@H](CS)NC(=O)[C@H](CO)NC(=O)[C@@H](NC(=O)[C@@H]1CCCN1C(=O)[C@@H]1CCCN1C(=O)CNC(=O)[C@H](CCCNC(=N)N)NC(=O)[C@@H](NC(=O)[C@H](CCCCN)NC(=O)[C@H](CCCNC(=N)N)NC(=O)[C@H](CCSC)NC(=O)[C@H](CC(N)=O)NC(=O)[C@H](CCCNC(=N)N)NC(=O)[C@H](CCC(N)=O)NC(=O)[C@H](Cc1c[nH]c2ccccc12)NC(=O)[C@H](CCC(N)=O)NC(=O)[C@H](Cc1ccccc1)NC(=O)[C@H](CS)NC(=O)[C@H](CCCCN)NC(=O)[C@@H](N)[C@@H](C)O)C(C)C)C(C)C)C(=O)N[C@@H](CCCCN)C(=O)N[C@@H](CCCNC(=N)N)C(=O)N[C@@H](CC(=O)O)C(=O)N[C@@H](CO)C(=O)O` [[20CysSH, 37CysSH] Human LF (18-42)] (H-TKCFQWQRNMRKVRGPPVSCIKRDS-OH), the “ratio of stained (HIV infected) cells” value was 17% in the experiment with HIV (HTLV-IIIB) (sample 63 μg/ml); 8.5% in the experiment with HIV (HTLV-IIIB) (sample 125 μg/ml); 6.2% with HIV (HTLV-IIIB) (sample 250 μg/ml); 3.1% in the experiment with HIV (HTLV-IIIB) (sample 500 μg/ml); 1.4% with HIV (HTLV-IIIB) (sample 1,000 μg/ml). Further, in experiment [1], the “Inhibitory rate … of influenza virus” value worked out at 96.0%. Moreover, in experiment [2], the “Inhibitory rate of human CMV infection” value turned out to be 100.0%.
In the case of “Bovine LF: bovine lactoferrin, an iron-binding protein secreted in milk (CRRWQWRMKKLGAPSITC)”, the “ratio of stained (HIV infected) cells” value worked out at 18% in the experiment on HIV (HTLV-IIIB) (sample 63 μg/ml); 8.0% in the experiment with HIV (HTLV-IIIB) (sample 125 μg/ml); 6.2% with HIV (HTLV-IIIB) (sample 250 μg/ml); 4.8% in the experiment with HIV (HTLV-IIIB) (sample 500 μg/ml); 3.6% in the experiment with HIV (HTLV-IIIB) (sample 1,000 μg/ml). The “Inhibitory rate … of influenza virus” value in experiment [1] is on record as 87.5%. Also, the “Inhibitory rate of human CMV infection” value in experiment [2] is listed as 95.7%.
